# Test results published in patent publication US7649013B2, “Methods of protecting against radiation injury” (priority 2003, dated 2010).
# Entries after “also recorded” stand apart in the source; their conditions may differ.
# Key:
# [1] = system: E2F1 in human colon cancer cells (SW480); experiment: E2F1 level in whole cell extracts, SDS/PAGE and enhanced chemiluminescence, colon cancer cells; assay type: cell-based; details: SW480, 2 μM, 20 minute to 4 hour exposures
# Description: (§1) Human colon cancer cells (SW480) and normal colon cells (NCM460) are treated with β-lapachone at a concentration of 2 μM and are harvested after 20 minute, 1 hour, 2 hour, or 4 hour exposures. Whole cell extracts are prepared and resolved by SDS/PAGE. An enhanced chemiluminescence assay system (Amersham Pharmacia) is used to determine the E2F1 level. Monoclonal antibody against […] is obtained from Santa Cruz Biotechnology (Santa Cruz, Calif.). […] Elevation of E2F1 following exposure to β-lapachone persists through cell death in cancer cells.
# [2] = system: E2F1 in normal colon cells (NCM460); experiment: E2F1 level in whole cell extracts, SDS/PAGE and enhanced chemiluminescence, normal colon cells; assay type: cell-based, human; details: NCM460, 2 μM, 20 minute to 4 hour exposures
# Description: as §1
# [3] = system: C57BL/6J inbred strain female mice; experiment: Survival after 8 Gy whole body γ-irradiation, intraperitoneal dosing 4 hours before or after (Example 4); assay type: in vivo; details: for No. of animals surviving at 20 days post-irradiation: 4 animals; for Death rate (%): 20 days
# Description: β-lapachone is prepared at 10 mg/ml in 40% hydroxypropyl-beta-cyclodextrin (HPBCD).
# C57BL/6J inbred strain female mice (4-5 weeks old) are used. Animals are maintained in a climate-controlled animal facility.
# Animals are injected with different concentrations of β-lapachone (20 and 40 mg/kg body weight) intraperitoneally 4 hours before or after irradiation.
# Whole body irradiation of animals with 8 Gy of γ-rays is carried out in air at room temperature in a gamma chamber (Gammacell 40 Exactor), at a dose-rate of 1.05 Gy/min. This radiation dose is within the range of equivalent human exposures predicted in many scenarios of radiologic or nuclear terrorist attack.
# Mice are divided into the following groups (each Group comprises four mice receiving identical treatment):
# Group II: Mice are injected with β-lapachone 20 mg/kg body weight 4 hours before radiation.
# Group III: Mice are injected with β-lapachone 40 mg/kg body weight 4 hours before radiation.
# Group IV: Mice are injected with β-lapachone 20 mg/kg body weight 4 hours after radiation.
# Group V: Mice are injected with β-lapachone 40 mg/kg body weight 4 hours after radiation.
# Group VI: Mice are injected with amifostine 10 mg/kg body weight 4 hours before radiation.
# Animals are irradiated with 8 Gy at 1.05 Gy/min dose-rate. After irradiation mice are returned to their cage and observed on a regular basis. Exposure to γ-rays causes lethality in animals. Importantly, treatment with β-lapachone, especially at a level of 40 mg/kg prior to irradiation, diminishes the death rate.
# [4] = system: C57BL/6J inbred strain female mice; experiment: Thymic cellularity after whole body irradiation, hematoxylin-eosin sections (Example 7a); assay type: in vivo; details: 40 mg/kg i.p. 0.5 hour before 8 Gy; day five
# Description: (§2) β-lapachone is prepared at 10 mg/ml in 40% hydroxypropyl-beta-cyclodextrin (HPBCD). C57BL/6J inbred strain female mice (4-5 weeks old) are organized into three groups of six mice each: Group I mice receive no radiation, no β-lapachone, and no carrier; Group II mice receive radiation and are injected with carrier (40% HPBCD 4 ml/kg body weight); and Group III mice are injected intraperitoneally at 0.5 hour before irradiation with β-lapachone (40 mg/kg body weight). Whole body irradiation of animals with 8 Gy of γ-rays is carried out in air at room temperature in a gamma chamber (Gammacell 40 Exactor), with a dose-rate of 1.05 Gy/min. This radiation dose is within the range of equivalent human exposures predicted in many scenarios of radiologic or nuclear terrorist attack. Following irradiation, animals are maintained in a climate-controlled animal facility. Three mice in each of Groups I, II, and III are sacrificed on day five following irradiation, and an analysis of thymic cellularity is performed for each. The remaining mice are sacrificed on day eight following irradiation, and an analysis of thymic cellularity is performed for each. Thymic cellularity is qualitatively assessed in sections stained with hematoxylin-eosin following standard procedures.
# [5] = system: C57BL/6J inbred strain female mice; experiment: Histologic spleen cellularity after whole body irradiation, hematoxylin-eosin sections (Example 7c); assay type: in vivo; details: 40 mg/kg i.p. 0.5 hour before 5 Gy (nonlethal); five days after irradiation
# Description: as §2, with “Spleen cellularity is qualitatively assessed following whole body gamma irradiation in mice, with and without pretreatment with β-lapachone, as follows. β-lapachone is” for “β-lapachone is”, “8 Gy (lethal radiation) or 5 Gy (sublethal radiation) of γ-rays” for “8 Gy of γ-rays”, “analysis of splenic cellularity is” for “analysis of thymic cellularity is”, “for each. […] Splenic cellularity is” for “for each. The remaining mice are sacrificed on day eight following irradiation, and an analysis of thymic cellularity is performed for each. Thymic cellularity is”
# [6] = system: dogs; details: p.o. daily for one month; cited from earlier work
# [7] = 20 mg/kg i.p. 4 hr after Radiation 8 Gy
# [8] = 20 mg/kg i.p. 4 hr before Radiation 8 Gy
# [9] = 40 mg/kg i.p. 4 hr before Radiation 8 Gy
# [10] = Radiation 8 Gy 4 hr → 20 mg/kg as printed (second such line of Table 1)
smiles,measurement,setting,value
"CC1(C)CCC2=C(O1)c1ccccc1C(=O)C2=O [β-lapachone, 3,4-dihydro-2,2-dimethyl-2H-naphtho[1,2-b]pyran-5,6-dione]",E2F1 level,[1],Elevation of E2F1 is seen in tumor cells; also recorded: induces increased expression of E2F1
same,E2F1 level,[2],not in similarly treated normal human colon cells
same,Median survival time,[3]; [7],14 days
same,No. of animals surviving at 20 days post-irradiation,[3]; [7],1
same,Death rate (%),[3]; [7],75%
same,Median survival time,[3]; [8],13.5 days
same,No. of animals surviving at 20 days post-irradiation,[3]; [8],0
same,Death rate (%),[3]; [8],100%
same,Median survival time,[3]; 40 mg/kg i.p. 4 hr after Radiation 8 Gy,16.4 days
same,Median survival time,[3]; [9],25 days
same,No. of animals surviving at 20 days post-irradiation,[3]; [9],3
same,Death rate (%),[3]; [9],25%
same,Temporal survival pattern (FIG. 5),"[3]; 20, 40 mg/kg i.p., 4 hours before or after 8 Gy, vs control decline at 10-14 days",delayed this early decline in survival
same,No. of animals surviving at 20 days post-irradiation,[3]; [10],0
same,Death rate (%),[3]; [10],100%
same,Thymic cellularity in thymic sections (FIG. 8),[4],preserves thymic cellularity
same,Spleen structure and cellularity judged histologically (FIG. 10),[5],protective effect on spleen structure and cellularity
same,Maximum tolerated dose,[6],100 mg/kg
